Test [1] relates to Malassezia furfur (MTCC 1374). Kind of test: MIC by agar dilution method in Leeming Notman Medium. The settings on record: M. furfur. Format: cell-based. Set-up: key: “+” indicates growth of fungus; “−” indicates no growth of fungus. How it is done:
The Minimum Inhibitory Concentration (MIC) is considered as an index for indicating Anti-fungal efficacy. Therefore lower the value of MIC of the composition, the better is its anti-fungal efficacy.
Method: The in vitro activities of some of the oil compositions containing piroctone olamine against Malassezia furfur (MTCC 1374) were determined by agar dilution methods (Jan Faergemann, et al Acta Derm Venereol, (2006), 86:312; Irith Wiegand, et al Nature Protocols (2008), 3:163) Appropriate dilutions of solubilized antifungal compositions were added to molten Leeming Notman Medium. Once the plates were set, M. furfur innoculum adjusted to appropriate cfu/ml was streaked on the agar plates and incubated for 6 days. […] The MIC is defined as as the lowest concentration of antifungal agents that inhibits visible growth of fungus.
Method: The in vitro activities of some of the oil compositions containing ketoconazole against Malassezia furfur (MTCC 1374) were determined by agar dilution methods. Appropriate dilutions of antifungal compositions were added to molten Leeming Notman Medium. Once the plates were set, M. furfur innoculum adjusted to appropriate cfu/ml was streaked on the agar plates and incubated for 6 days. […] The MIC is defined as the lowest tested dilution of antifungal active that yields no growth.
B) Study of MIC of Oil Compositions Devoid of C-11 or Greater Fatty Acids/Esters Containing Antifungal Agent Piroctone Olamine Against M. furfur Under in vitro Conditions.
On the technique in general: In agar dilution the substance is mixed into plates at graded concentrations.

In test [2] the test system is M. obtusa. In words: MIC of oil compositions against M. obtusa. In kind it is cell-based. Details: key: “+” indicates growth of fungus; “−” indicates no growth of fungus.
In test [3] the test system is M. furfur (MTCC 1374). Kind of test: Lipid assimilation in vitro assay: growth of M. furfur on Sabouraud Dextrose agar supplemented with fatty acids/esters or oils. In kind it is cell-based, Malassezia furfur. To be noted: up to 6 days. The source says: Malassezia species are lipophilic unipolar yeasts recognized as commensals of skin that may be pathogenic under certain conditions (Indian Journal of Medical Microbiology, (2004) 22 (3):179-181). To compare lipid requirements of the fungus most closely associated with dandruff/seborrheic dermatitis, the best studied Malassezia species is M. furfur. Lipid assimilation in vitro assay was designed to investigate lipid effect on growth of M. furfur (MTCC 1374).
Method: Briefly, Sabouraud Dextrose containing low-melt agar was melted, cooled to 38° C. Fatty acids/esters constituents eg, capric acid, caprylic acid, linoleic acid, oleic acid, lauric acid, palmitic acid, ethyl oleate, isopropyl myristate and oils containing fatty acid/esters eg, coconut oil, mustard oil etc., were added to study the growth of the fungus (Kaw Bing CHUA, et al Malaysian J Pathol (2005) 27(2): 99). After solidification, agar plates were streaked with M. furfur innoculum adjusted to appropriate cfu/ml, aseptically. Positive control with 2% olive oil and negative control without fatty substance were also maintained.
Malassezia species are lipophilic, unipolar yeasts recognized as commensals of skin that may be pathogenic under certain conditions. To compare lipid requirements of the fungus most closely associated with dandruff/seborrheic dermatitis, the best studied Malassezia species is M. furfur. A lipid assimilation in vitro assay was designed to investigate lipid effect <C-11 fatty acid or their esters on growth of M. furfur (MTCC 1374).
Briefly, Sabouraud Dextrose containing low-melt agar was melted and cooled to 38° C. Fatty acids/esters constituents, e.g., caprylic acid, capric acid and Monocaprylate of propylene glycol, were added in 2% concentration to study the growth of the fungus. After solidification, agar plates were streaked with M. furfur innoculum adjusted to appropriate cfu/ml, aseptically. Positive control with 2% olive oil and negative control without fatty substance were also maintained.
A lipid assimilation in vitro assay was designed to investigate lipid effect >C-10 fatty acid or their esters on growth of M. furfur (MTCC 1374). Sabouraud Dextrose containing low-melt agar was melted and cooled to 38° C. Fatty acids/esters constituents, e.g. fatty acids or esters, such as lauric acid, palmitic acid, myristic acid, oleic acid, linoleic acid, isopropyl myristate, ethyl oleate, mustard oils, coconut oil were added at different concentration to study the growth of the fungus. Positive control with 2% olive oil and negative control without fatty substance were also maintained. After solidification, agar plates were streaked with M. furfur innoculum adjusted to appropriate cfu/ml, aseptically.

[4] abbreviates: Table 6, compositions of Table 5.
The mark [5] stands for this setting: piroctone olamine oil compositions, incubated 6 days.
Setting [6] is: Example 6B, different concentration (olive oil 2%).

Take `CC(=O)N1CCN(c2ccc(OCC3COC(Cn4ccnc4)(c4ccc(Cl)cc4Cl)O3)cc2)CC1` (stereo not drawn) [Keto in DMSO, Ketoconazole]: the “Growth of fungus at concentration 0.0625 μg/ml (MIC determination)” value in test [1] (0.0625 μg/ml, ketoconazole oil compositions, incubated 6 days) was “+”. Moreover, the “Growth of fungus at concentration 0.125 μg/ml (MIC determination)” value in test [1] (0.125 μg/ml, ketoconazole oil compositions, incubated 6 days) is “+”. The “Growth of fungus at concentration 0.25 μg/ml (MIC determination)” value in test [1] (0.25 μg/ml, ketoconazole oil compositions, incubated 6 days) was “−”. For the same compound, the “Growth of fungus at concentration 0.5 μg/ml (MIC determination)” value in test [1] (0.5 μg/ml, ketoconazole oil compositions, incubated 6 days) is “−”. Further, the “Growth of fungus at concentration 1 μg/ml (MIC determination)” value in test [1] (1 μg/ml, ketoconazole oil compositions, incubated 6 days) was “−”. For the same compound, in test [1] (2 μg/ml, ketoconazole oil compositions, incubated 6 days), the “Growth of fungus at concentration 2 μg/ml (MIC determination)” value is listed as “−”.
As for `Cc1cc(CC(C)CC(C)(C)C)n(O)c(=O)c1.NCCO` (stereo not drawn) [PO in DMSO, Piroctone olamine], the “Growth of fungus at concentration 4 μg/ml (MIC determination)” value in test [2] (4 μg/ml) is “+”. In addition, the “Growth of fungus at concentration 8 μg/ml (MIC determination)” value in test [2] (8 μg/ml), in test [1] (setting [4]) and in test [1] (setting [5]) was “+” each time. For the same compound, the “Growth of fungus at concentration 16 μg/ml (MIC determination)” value in test [2] (16 μg/ml), in test [1] (setting [4]) and in test [1] (setting [5]) was “+” in each case. For the same compound, the “Growth of fungus at concentration 32 μg/ml (MIC determination)” value in test [2] (32 μg/ml), in test [1] (setting [4]) and in test [1] (setting [5]) was “−” in each case. Further, the “Growth of fungus at concentration 64 μg/ml (MIC determination)” value in test [2] (64 μg/ml), in test [1] (setting [4]) and in test [1] (setting [5]) was “−” in each case.
For `CCCCCCCCCC(=O)O` [capric acid], the “Growth of M. furfur with the substance as nutrient in culture media” value (shortened to “Growth of M. furfur with the substance”) in test [3] (Example 3) is on record as “no growth”; in test [3] (Example 6A, 2% concentration), “no growth”.
For `CCCCCCCC(=O)O` [caprylic acid], the “Growth of M. furfur with the substance” value is recorded as “no growth” in test [3] (Example 3) and “no growth” in test [3] (Example 6A, 2% concentration).
For `CCCCCCCC/C=C\CCCCCCCC(=O)OCC` [ethyl oleate], the “Growth of M. furfur with the substance” value in test [3] (Example 3) and in test [3] (setting [6]) was “confluent growth” in each case.
With `CCCCCCCCCCCCCC(=O)OC(C)C` [isopropyl myristate], the “Growth of M. furfur with the substance” value in test [3] (Example 3) and in test [3] (setting [6]) was “confluent growth” each time.
On to `CCCCCCCCCCCC(=O)O` [lauric acid], for which the “Growth of M. furfur with the substance” value in test [3] (Example 3) and in test [3] (setting [6]) was “confluent growth” throughout.
In the case of `CCCCC/C=C\C/C=C\CCCCCCCC(=O)O` [linoleic acid], the “Growth of M. furfur with the substance” value in test [3] (Example 3) and in test [3] (setting [6]) was “confluent growth” throughout.
In the case of `CCCCCCCCCCCCCC(=O)O` [myristic acid], the “Growth of M. furfur with the substance” value in test [3] (setting [6]) is “confluent growth”.
With `CCCCCCCC/C=C\CCCCCCCC(=O)O` [oleic acid], the “Growth of M. furfur with the substance” value in test [3] (Example 3) and in test [3] (setting [6]) was “confluent growth” each time.
As to `CCCCCCCCCCCCCCCC(=O)O` [palmitic acid], the “Growth of M. furfur with the substance” value in test [3] (Example 3) and in test [3] (setting [6]) was “confluent growth” in each case.

Source of the values: patent US10232047B2, “Topical oil composition for the treatment of fungal infections” (VYOME BIOSCIENCES PVT LTD., priority 2011, dated 2019).
